Assay results published in patent US20230398228A1, “ERIBULIN-BASED ANTIBODY-DRUG CONJUGATES AND METHODS OF USE” (EISAI R&D MANAGEMENT CO., LTD., priority 2016, published 2023).
Values joined by “and” are separate entries in the source; they are usually repeats but may differ in a detail not shown here. Identical values can stand only once.

Tests used:
[1] = test system: A431 cells; experiment: Crystal Violet cytotoxicity assay (Example 4), A431 (parental); assay type: cell-based, human; settings: Homo sapiens, A-431, mean of replicate experiments, read-out: Cytotoxicity IC50 (nM), A431 (FR^neg, MSLN^neg)
Description: Test reagents were serial diluted 1:3 in 2 mL deep-well dilution plates, starting at 200 nM (10 dilutions total). […] Medium was then discarded. […] Plates were read at 570 nm. Data was analyzed using GraphPad Prism 6. […]
MAL-PEG2-Val-Cit-PAB-eribulin (ER-001159569) was conjugated to eight different anti-human mesothelin antibodies (Table 1). Binding affinities of the parental antibodies were determined by BIAcore analysis, as described above in section 1.6.1. Aggregation levels for all anti-human mesothelin ADCs were determined by SEC-HPLC and the DAR was analyzed using HIC-HPLC. In vitro potency was evaluated using a Crystal Violet cell-based cytotoxicity assay in A3 (A431 stabily transfected with human mesothelin (MSLN), MSLN^hi), OVCAR3 (human ovarian, MSLN^hi), HEC-251 (human endometroid, MSLN^med), H226 (human lung squamous cell mesothelioma, MSLN^lo), and A431 parental (MSLN^neg) cells.

[2] = test system: ZR-75 cells; experiment: Crystal Violet cytotoxicity assay (Example 4), ZR-75; assay type: cell-based, human; settings: Homo sapiens, ZR75; ZR-75-1 cells; mean of replicate experiments; read-out: Cytotoxicity IC50 (nM), ZR-75-1 (FR^neg, MSLN^neg, her2^med)
Description: (§1) Test reagents were serial diluted 1:3 in 2 mL deep-well dilution plates, starting at 200 nM (10 dilutions total). […] Medium was then discarded. […] Plates were read at 570 nm. Data was analyzed using GraphPad Prism 6.

[3] = test system: NCI-N87 cells; experiment: Crystal Violet cytotoxicity assay (Example 4), NCI-N87; assay type: cell-based, human; settings: Homo sapiens; NCI-N87-Luc cells; mean of replicate experiments; read-out: Cytotoxicity IC50 (nM), NCI-N87-Luc (FR^lo, MSLN^med, her2^hi)
Description: as §1

[4] = test system: NUGC3 cells; experiment: Crystal Violet cytotoxicity assay (Example 4), NUGC3; assay type: cell-based, human; settings: Homo sapiens, NUGC-3; NUGC3-Luc cells; mean of replicate experiments; read-out: Cytotoxicity IC50 (nM), NUGC3-Luc (FR^neg, MSLN^neg, her2^neg)
Description: as §1

[5] = Maximum tolerated dose of eribulin in CD-1 mice; assay type: in vivo, mouse; settings: for toxicity, in words: q4dx3
Description: Naïve CD-1 mice were injected intravenously with 200 μL of eribulin according to the schedule in Table 22. Body weight was measured three times a week including prior to dose on each dosing day and 24 hours following each dose. […] The terminal body weight was measured and recorded. Euthanized mice at the end of the study (and if any mouse euthanized or found dead during the study) were processed for necropsy. Organs were examined for signs of tissue damage.

[6] = in vivo; settings: female, NMRI nu/nu, mouse, iv
Description: (§2) Tumor fragments were implanted subcutaneously into the left flank of 40 NMRI nu/nu female mice, and tumor volume was monitored. Mice with a tumor volume of 100-160 mm^3 were randomized into one of four groups (Groups A-D, Table 39). […] Each group consisted of 8 animals. The day of randomization was designated as Day 0 of the experiment.
(§3) Tumor growth was evaluated by the measurement of two perpendicular diameters twice weekly, and tumor volume (TV), relative tumor volume (RTV) and treated/control (T/C) values were calculated. Body weight was also evaluated twice weekly as a parameter for toxicity, with the calculation of the body weight per group and body weight changes (BWC) relative to the start of treatment. Animals were sacrificed when the individual tumor volume exceeded 1 cm^3, or at the end of the study.

[7] = test system: Endo-10590 endometrial cancer patient-derived xenograft; experiment: Endometrial cancer PDx model Endo-10590; settings: for anti-tumor activity, in words: single i.v. dose
Description: as §2, §3

[8] = test system: IGROV1 cells; experiment: Crystal Violet cytotoxicity assay (Example 4), IGROV1; assay type: cell-based, human; settings: Homo sapiens, IGROV-1, mean of replicate experiments, read-out: Cytotoxicity IC50 (nM), IGROV1 (FR^hi, MSLN^neg)
Description: as §1

[9] = test system: BT-474 cells; experiment: Crystal Violet cytotoxicity assay (Example 4), BT-474; assay type: cell-based, human; settings: Homo sapiens; BT-474 cells; mean of replicate experiments; read-out: Cytotoxicity IC50 (nM), BT-474 (FR^neg, MSLN^neg, her2^hi)
Description: as §1

[10] = test system: HL-60 cells; experiment: Bystander killing assay, Nuclight Red HL-60; assay type: cell-based, human; settings: Homo sapiens; HL-60 cells treated with free eribulin; read-out: EC50, HL-60 (eribulin)
Description: The day before study commencement, Nuclight™ Green (NLG) IGROV1 cells were seeded at 5,000 cells/well into 96-well round bottom plates, followed by centrifugation at 1,000 rpm for 3 min at room temperature to ensure formation of a cell pellet. The plate was placed in the vessel of an Incucyte Zoom® (EssenBio science) and incubated at 37° C./5% CO2 overnight. The program was set to collect images of cell growth, and to determine total numbers of nuclear green-stained and nuclear red-stained cells as well as phase-confluency of the cells every two hours. […] 50 μL of cytotoxin solution was added to the NLG-IGROV1 cells and incubated for 30 min. During the incubation period, Nuclight™ Red (NLR) HL-60 (FR^neg) cells were diluted to 2×10^5, 1×10^5 or 5×10^4 cell/mL with fresh media. 50 μL of the NLR-HL60 cell suspension or medium alone was added to the NLG-IGROV1 wells, followed by centrifugation at 1,000 rpm for 3 min at room temperature to ensure re-formation of the cell pellet. The plate was placed back into the vessel of Incucyte Zoom (EssenBio science) and incubated at 37° C./5% CO2 for up to 5 days. Relative cell growth of NLG-IGROV1 was determined by comparison to no ADC or free drug alone added samples using green cell counts. Relative cell growth of HL60 was done similarly, except that red cell count was determined. Determination of IC50 values for both NLG-IGROV1 and NLR-HL-60 was determined using Prism (GraphPad).
In order to assess bystander killing activity, an assay was set up using two labeled cell lines. […] Cytotoxicity was monitored by an Incucyte Zoom® cell imager.

[11] = test system: NCI-H2110 cells; experiment: Crystal Violet cytotoxicity assay (Example 4), NCI-H2110; assay type: cell-based, human; settings: Homo sapiens, mean of replicate experiments, read-out: Cytotoxicity IC50 (nM), NCI-H2110 (FR^med, MSLN^med)
Description: as §1

[12] = test system: Endo-12961 endometrial cancer patient-derived xenograft; experiment: Endometrial cancer PDx model Endo-12961; settings: for anti-tumor activity, in words: single i.v. dose
Description: as §2, §3

[13] = in vivo; settings: female, NMRI nu/nu, mouse, iv; remark: listed apart in the source
Description: as §2, §3

[14] = test system: human BM-MSCs co-cultured with MKN-74 cells; experiment: 3D co-culture system (rStomach, zPredicta), MSC differentiation by flow cytometry; assay type: cell-based; settings: 7 days treatment, MORAb-202 10 nM, MORAb-003 10 nM, eribulin […] and 0.2 nM (Table 41)
Description: All mesenchymal stem cell (MSC)-containing 3D co-culture experiments were conducted in zPredicta, using organ-specific 3D extracellular matrix systems such as rStomach™. Bone marrow mesenchymal stem cells (BM-MSCs) in rStomach™ were co-cultured with the Nuc Red Light MKN-74 gastric cancer cell line in quadruplicate in 48-well format for 12 days. […] Prior to culture, BM-MSCs were evaluated for target antigen expression and for markers of MSC differentiation (Table 40) by flow cytometry.
Controls included untreated and vehicle-treated (PBS and DMSO) cultures. MSC differentiation was monitored by light microscopy. Once visible differentiation was observed, samples were harvested for staining and flow cytometry analysis.
Bone marrow mesenchymal stem cells (BM-MSCs) in rStomach™ (zPredicta) were co-cultured with the MKN-74 gastric cancer cell line for 12 days. […] Once visible MSC differentiation was observed by light microscopy, samples were harvested for staining and flow cytometry analysis.

[15] = MORAb-202 5 mg/kg or eribulin 3.2 mg/kg

SMILES: C=C1C[C@@H]2CC[C@@]34C[C@H]5O[C@H]6[C@@H](O3)[C@H]3O[C@H](CC[C@@H]3O[C@H]6[C@H]5O4)CC(=O)C[C@@H]3[C@@H](OC)[C@@H](C[C@H](O)CN)O[C@H]3C[C@H]3O[C@@H](CC[C@@H]1O2)C[C@@H](C)C3=C [eribulin]
- IC50 [1]: 0.653 nM
- IC50 [2]: 0.236 nM
- IC50 [3]: 0.257 nM
- IC50 [4]: 0.445 nM
- clinical finding, in words ([5]; 3.2 mg/kg q4dx3, after the second dose): piloerection in all three mice
- body weight loss of individual mouse ([5]; 3.2 mg/kg q4dx3, after the third dose): 17% and 8%
- toxicity, in words ([5]; 3.2 mg/kg): severe weight loss
- toxicity, in words ([5]; doses up to 1.6 mg/kg): no toxicity
- body weight loss or clinical findings, in words ([5]; doses up to 1.6 mg/kg, q4dx3, i.v.): No significant body weight loss or clinical findings indicating toxicity
- gross organ changes at necropsy, in words ([5]; mouse, in vivo): No gross changes
- MTD ([5]; mouse, in vivo, iv, q4dx3, i.v., CD-1 mice): 1.6 mg/kg
- MTD [6]: 3.2 mg/kg
- tumor re-growth during the study, in words [7, 15]: began to re-grow
- anti-tumor activity, in words [7, 15]: significant anti-tumor activity
- anti-tumor activity, in words ([7]; eribulin 0.1 mg/kg): no significant anti-tumor activity
- effect on body weight, in words ([7]; first week post-treatment): temporarily affected body weight
- IC50 [8]: 0.32 nM
- IC50 [9]: 0.151 nM
- EC50 [10]: 0.17 nM
- IC50 [11]: 0.199 nM
- tumor re-growth during the study, in words [12, 15]: began to re-grow
- anti-tumor activity, in words [12, 15]: significant anti-tumor activity
- anti-tumor activity, in words ([12]; eribulin 0.1 mg/kg): no significant anti-tumor activity
- effect on body weight, in words ([12]; first week post-treatment): temporarily affected body weight
- MTD [13]: 3.2 mg/kg
- Percentage of live cells, Pericytes ([14]; PBS 14.6%): 25.8%
- Percentage of live cells, Adipocytes ([14]; PBS […]): 2.68%
- Percentage of live cells, MSCs ([14]; PBS […]): 29.9%
